k = constrained ethyl (cEt); d = 2'-deoxy (DNA)
How the values were obtained:
MSI1 RNA = assay: MSI1 expression after ASO free uptake (q-RT-PCR); assay type: cell-based, human; conditions: 24 hours, MIA PaCa-2 cells
Method: (FIG. 8 F to FIG. 8H) Real time PCR analysis of Msi expression following ASO free uptake in MIA PaCa-2 cells. MIA PaCa-2 cells were treated with 2 Gen 2.5 cEt ASOx target MSI1 or Control Gen 2.5 ASO for 24 hours, RNA was isolated and target knockdown (MSI1 RNA level) was determined by q-RT-PCR. IC50 values for each ASO were calculated using GraphPad Prism software; each treatment condition was performed in triplicate. (FIG. 8I) Colony formation assay in MSI1 ASO-treated MIA PaCa-2 cells after weekly delivery of control or MSI1 ASOs; colonies were counted after 4 weeks; n=3 for each ASO tested. (FIG. 8J) In vivo tracking of tumor volume in MSI1 ASO treated MIA PaCa-2 tumors with intratumoral delivery of control or MSI1 ASOs every day for 5 days followed by 2 days off; n=5 for each ASO tested. Nonlinear regression was used to determine the difference in slope between Control ASO and MSI1-ASO-1 (p<0.001). (FIG. 8K) In vivo tracking of tumor volume of primary KP^f/fC tumors with intratumoral delivery of control ASO or MSI1 ASOs following tumor establishment (n=4). […]
To identify human Msi ASO inhibitors, rapid throughput screens were performed to identify effective ASOs as previously described (Wang, J. C. Y. & Dick, J. E. Cancer stem cells: lessons from leukemia. Trends in Cell Biology 15, 494-501 (2005); Reya, T., Morrison, S. J., Clarke, M. F. & Weissman, I. L. Stem cells, cancer, and cancer stem cells. Nature 414(6859):105-11 (2001); Carroll, J. B. et al. Potent and Selective Antisense Oligonucleotides Targeting Single-Nucleotide Polymorphisms in the Huntington Disease Gene/Allele-Specific Silencing of Mutant Huntingtin. Molecular Therapy 19, 2178-2185 (2009); Samuel, V. T. et al. Targeting foxo1 in mice using antisense oligonucleotide improves hepatic and peripheral insulin action. […] Gene expression was assessed with taqman probes for MSI1 and MSI2. […] Colonies were counted 21 days after the first ASO treatment. […] Tumor measurements were recorded every 3 days. […]

MIA PaCa-2 tumors = assay: In vivo growth of MIA PaCa-2 flank tumors with intratumoral ASO; parameters: species or system mouse; conditions: intratumoral delivery, four weeks (5 days on and 2 days off), NSG mice
From the text: Although ASOs have been used to inhibit gene expression in a variety of tissues (Carroll, J. B. et al. Potent and Selective Antisense Oligonucleotides Targeting Single-Nucleotide Polymorphisms in the Huntington Disease Gene/Allele-Specific Silencing of Mutant Huntingtin. Molecular Therapy 19, 2178-2185 (2009); Hung, G. et al. Characterization of Target mRNA Reduction Through In SituRNA Hybridization in Multiple Organ Systems Following Systemic Antisense Treatment in Animals. Nucleic Acid Therapeutics 23, 369-378 (2013); Rigo, F. et al. Pharmacology of a central nervous system delivered 2′-O-methoxyethyl-modified survival of motor neuron splicing oligonucleotide in mice and nonhuman primates. Journal of Pharmacology and Experimental Therapeutics 350, 46-55 (2014)), whether pancreatic cancer cells can take up ASOs was not known. […] Functionally MSI1 ASOs led to a marked reduction in colony numbers as well as in colony size, with a cumulative reduction of ˜2.5 fold in total growth (FIG. 4I). To test the impact of ASO mediated MSI1 inhibition in vivo, human pancreatic cancer cells were transplanted until growth was measurable. Subsequently, MSI1 inhibitors were delivered intratumorally for a period of four weeks (5 days on and 2 days off) and tumor growth monitored. […] KP^f/fC pancreatic tumor cells were isolated, transplanted and monitored until measurable growth (30 mm^3). […]

5′-ATATGATACAGGACGG-3′ (sugars from the 5' end k3 d10 k3, backbone and methylation of C not given here) [ASO-1]
MSI1 expression in cell lines after ASO treatment (MSI1 RNA): inhibited MSI1 expression | Tumor growth of human pancreatic cancer cell line derived tumors (MIA PaCa-2 tumors): significant reduction in the rate of tumor growth

Source: US10578608B1, “Tools to detect, track and target cancer cells in vivo” (The Regents of the University of California, priority 2015, dated 2020)
